In article PMC11899342, “Novel Triazeneindole Antibiotics: Synthesis and Hit-to-Lead Optimization” (International Journal of Molecular Sciences, 2025):
Converted amounts (≈) assume the structure as drawn. Where two headings read alike, the source gives them in different places.

Tests used:
[1] = Solubility in water by HPLC; assay type: physicochemical; details: water
In short: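 Compound (1.0 mg in 10 μL DMSO) mixed with 1.0 mL water, shaken 5 min and centrifuged; supernatant analysed by C18 HPLC. Water concentration derived from peak area relative to an acetonitrile standard at 1.0 mg/mL.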

MRSA = experiment: Selectivity index (average IC50 on eukaryotic cells / average MIC on MRSA); assay type: cell-based, Staphylococcus aureus; details: average IC50 on eukaryotic cells divided by average MIC on MRSA
Description: The selectivity index was calculated for each compound as the average IC50 on eukaryotic cells divided by the average MIC on MRSA (Table 2).

MRSA clinical isolates = experiment: MIC by broth microdilution against multidrug-resistant MRSA clinical isolates; assay type: cell-based, Staphylococcus aureus; details: for MIC: Staphylococcus aureus
In short: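 Multidrug-resistant clinical MRSA isolates, 1 × 10^6 CFU/mL suspension in Mueller Hinton broth, broth microdilution with compounds at final 1, 0.5, 0.25 and 0.125 mg/L. Incubated 18 h at 37 °C; MIC taken as lowest concentration with no visible growth, triplicate.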

[2] = test system: HepG2 human liver carcinoma cells; experiment: MTT cytotoxicity (hepatotoxicity) on HepG2; assay type: cell-based; details: Homo sapiens, HepG2, 24 h
Description: (§1) The primary screening of 22 substances was performed on human embryonic fibroblasts (HEFs). […] The HepG2 cell line was obtained from the American Type Culture Collection (ATCC cat. # HB-8065). The primary HEF cells (normal human embryonic fibroblasts) were derived from human embryonic stem cells. The cells were cultured in DMEM/F12 (1:1) medium containing 10% fetal bovine serum (Invitrogen, Carlsbad, CA, USA) at 37 °C and 5% CO2, according to standard mammalian tissue culture protocols and sterile technique. […] The incubation time with the substance was 24 h for all substances and cell lines. Cell detachment by trypsin, centrifugation, and counting in a hemocytometer were performed 16 h before the addition of the substance. For correct counting of the HepG2 cells, the cell suspension was passed through a syringe needle to get rid of cell aggregates. The cells were placed in the wells of a 96-well plate. The number of cells was selected according to the properties of the cell line and the final optical density in the experiment. Fibroblasts and hepatocytes were used in the amount of 10 thousand cells per well in 100 μL of DMEM/F12 medium supplemented with 10% fetal bovine serum. The substances were added to 100 µL of medium in the wells so that the final concentrations were 50, 25, 12.5, 6.25, 3.125, and 1.62 mg/L. The final well volume was 200 µL. The medium containing fetal bovine serum, without added substances, was used as a negative control. After 24 h, excessive amounts of medium were discarded. A total of 30 µL of MTT solution (5 mg/mL in PBS) was added to each well. After the precipitation of formazan crystals (3 h incubation), they were dissolved using 100 μL of dimethyl sulfoxide. The optical density (OD) was measured at 570 nm using a microplate reader (Eppendorf). For every condition, the cell viabilities were assessed in at least three independent experiments for every cell culture. Cell survival was calculated using the following formula:(OD of treated cells − OD blank)/(OD of control cells − OD blank) × 100%, where OD blank represents the OD values in wells without cells but with the addition of the MTT and DMSO solutions. The results were presented in the form of cytotoxicity curves, and the graphs were also plotted in a Microsoft Excel program; the calculation of the IC50 half-maximal inhibition concentration values was performed in a GraphPad Prism 6.0 (GraphPad Software Inc., San Diego, CA, USA) program, based on the equations of the cytotoxicity curves.

[3] = test system: human embryonic fibroblasts (HEFs); experiment: MTT cytotoxicity on human embryonic fibroblasts; assay type: cell-based; details: Homo sapiens, Fibroblast, 24 h, ND = non-toxic in tested concentrations (up to 50 mg/L)
Description: as §1

CCOC(=O)c1[nH]c2cc(F)ccc2c1/N=N/N1CCCC1 [BX-SI043, Ethyl (E)-6-fluoro-3-(pyrrolidin-1-yldiazenyl)-1H-indole-2-carboxylate]
solubility at 5 min ([1]; read-out: Solubility in water, mass concentration): 0.88 µg/mL | solubility at 5 min ([1]; read-out: Solubility in water, molar concentration): 3 µM | Selectivity Index (MRSA): 76 | MIC Range Against 8 MRSA Strains (MRSA clinical isolates; 8 multidrug-resistant MRSA clinical isolates, tested 0.125-1 mg/L): 0.25 µg/mL (≈ 0.821 µM) | minimal inhibitory concentration range (MRSA clinical isolates; 41 multidrug-resistant MRSA strains): 0.125 to 0.5 µg/mL | times lower MIC than either vancomycin or linezolid (MRSA clinical isolates; MRSA): 4–8 times | MIC (MRSA clinical isolates; MRSA, 8 MRSA strains, read-out: lowest MIC values against most tested strains): 0.25 µg/mL (≈ 0.821 µM) | MIC (MRSA clinical isolates; MRSA, Figure 6, MRSA strain 2, read-out: MIC against 8 MRSA strains): 0.25 µg/mL (≈ 0.821 µM) | MIC (MRSA clinical isolates; MRSA, Figure 6, MRSA strain 7, read-out: MIC against 8 MRSA strains): 0.25 µg/mL (≈ 0.821 µM) | MIC (MRSA clinical isolates; MRSA, Figure 6, MRSA strain 8, read-out: MIC against 8 MRSA strains): 0.25 µg/mL (≈ 0.821 µM) | MIC (MRSA clinical isolates; MRSA, Figure 6, MRSA strain 9, read-out: MIC against 8 MRSA strains): 0.25 µg/mL (≈ 0.821 µM) | MIC (MRSA clinical isolates; MRSA, Figure 6, MRSA strain 13, read-out: MIC against 8 MRSA strains): 0.25 µg/mL (≈ 0.821 µM) | MIC (MRSA clinical isolates; MRSA, Figure 6, MRSA strain 21, read-out: MIC against 8 MRSA strains): 0.25 µg/mL (≈ 0.821 µM) | MIC (MRSA clinical isolates; MRSA, Figure 6, MRSA strain 48, read-out: MIC against 8 MRSA strains): 0.25 µg/mL (≈ 0.821 µM) | MIC (MRSA clinical isolates; MRSA, Figure 6, MRSA strain 50, read-out: MIC against 8 MRSA strains): 0.25 µg/mL (≈ 0.821 µM) | MIC (MRSA clinical isolates; MRSA, Table S4, MRSA strain 1, read-out: MIC): 0.25 µg/mL (≈ 0.821 µM) | MIC (MRSA clinical isolates; MRSA, Table S4, MRSA strain 2, read-out: MIC): 0.5 µg/mL (≈ 1.64 µM) | MIC (MRSA clinical isolates; MRSA, Table S4, MRSA strain 3, read-out: MIC): 0.5 µg/mL (≈ 1.64 µM) | MIC (MRSA clinical isolates; MRSA, Table S4, MRSA strain 4, read-out: MIC): 0.5 µg/mL (≈ 1.64 µM) | MIC (MRSA clinical isolates; MRSA, Table S4, MRSA strain 5, read-out: MIC): 0.25 µg/mL (≈ 0.821 µM) | MIC (MRSA clinical isolates; MRSA, Table S4, MRSA strain 6, read-out: MIC): 0.5 µg/mL (≈ 1.64 µM) | MIC (MRSA clinical isolates; MRSA, Table S4, MRSA strain 7, read-out: MIC): 0.5 µg/mL (≈ 1.64 µM) | MIC (MRSA clinical isolates; MRSA, Table S4, MRSA strain 8, read-out: MIC): 0.25 µg/mL (≈ 0.821 µM) | MIC (MRSA clinical isolates; MRSA, Table S4, MRSA strain 9, read-out: MIC): 0.5 µg/mL (≈ 1.64 µM) | MIC (MRSA clinical isolates; MRSA, Table S4, MRSA strain 10, read-out: MIC): 0.25 µg/mL (≈ 0.821 µM) | MIC (MRSA clinical isolates; MRSA, Table S4, MRSA strain 12, read-out: MIC): 0.25 µg/mL (≈ 0.821 µM) | MIC (MRSA clinical isolates; MRSA, Table S4, MRSA strain 13, read-out: MIC): 0.5 µg/mL (≈ 1.64 µM) | MIC (MRSA clinical isolates; MRSA, Table S4, MRSA strain 14, read-out: MIC): 0.25 µg/mL (≈ 0.821 µM) | MIC (MRSA clinical isolates; MRSA, Table S4, MRSA strain 15, read-out: MIC): 0.25 µg/mL (≈ 0.821 µM) | MIC (MRSA clinical isolates; MRSA, Table S4, MRSA strain 16, read-out: MIC): 0.25 µg/mL (≈ 0.821 µM) | MIC (MRSA clinical isolates; MRSA, Table S4, MRSA strain 17, read-out: MIC): 0.5 µg/mL (≈ 1.64 µM) | MIC (MRSA clinical isolates; MRSA, Table S4, MRSA strain 18, read-out: MIC): 0.5 µg/mL (≈ 1.64 µM) | MIC (MRSA clinical isolates; MRSA, Table S4, MRSA strain 21, read-out: MIC): 0.5 µg/mL (≈ 1.64 µM) | MIC (MRSA clinical isolates; MRSA, Table S4, MRSA strain 23, read-out: MIC): 0.5 µg/mL (≈ 1.64 µM) | MIC (MRSA clinical isolates; MRSA, Table S4, MRSA strain 24, read-out: MIC): 0.5 µg/mL (≈ 1.64 µM) | MIC (MRSA clinical isolates; MRSA, Table S4, MRSA strain 25, read-out: MIC): 0.5 µg/mL (≈ 1.64 µM) | MIC (MRSA clinical isolates; MRSA, Table S4, MRSA strain 26, read-out: MIC): 0.25 µg/mL (≈ 0.821 µM) | MIC (MRSA clinical isolates; MRSA, Table S4, MRSA strain 27, read-out: MIC): 0.5 µg/mL (≈ 1.64 µM) | MIC (MRSA clinical isolates; MRSA, Table S4, MRSA strain 28, read-out: MIC): 0.5 µg/mL (≈ 1.64 µM) | MIC (MRSA clinical isolates; MRSA, Table S4, MRSA strain 29, read-out: MIC): 0.5 µg/mL (≈ 1.64 µM) | MIC (MRSA clinical isolates; MRSA, Table S4, MRSA strain 30, read-out: MIC): 0.5 µg/mL (≈ 1.64 µM) | MIC (MRSA clinical isolates; MRSA, Table S4, MRSA strain 31, read-out: MIC): 0.5 µg/mL (≈ 1.64 µM) | MIC (MRSA clinical isolates; MRSA, Table S4, MRSA strain 34, read-out: MIC): 0.125 µg/mL (≈ 0.411 µM) | MIC (MRSA clinical isolates; MRSA, Table S4, MRSA strain 35, read-out: MIC): 0.5 µg/mL (≈ 1.64 µM) | MIC (MRSA clinical isolates; MRSA, Table S4, MRSA strain 36, read-out: MIC): 0.25 µg/mL (≈ 0.821 µM) | MIC (MRSA clinical isolates; MRSA, Table S4, MRSA strain 40, read-out: MIC): 0.5 µg/mL (≈ 1.64 µM) | MIC (MRSA clinical isolates; MRSA, Table S4, MRSA strain 41, read-out: MIC): 0.25 µg/mL (≈ 0.821 µM) | MIC (MRSA clinical isolates; MRSA, Table S4, MRSA strain 42, read-out: MIC): 0.5 µg/mL (≈ 1.64 µM) | MIC (MRSA clinical isolates; MRSA, Table S4, MRSA strain 43, read-out: MIC): 0.5 µg/mL (≈ 1.64 µM) | MIC (MRSA clinical isolates; MRSA, Table S4, MRSA strain 44, read-out: MIC): 0.5 µg/mL (≈ 1.64 µM) | MIC (MRSA clinical isolates; MRSA, Table S4, MRSA strain 45, read-out: MIC): 0.5 µg/mL (≈ 1.64 µM) | MIC (MRSA clinical isolates; MRSA, Table S4, MRSA strain 46, read-out: MIC): 0.5 µg/mL (≈ 1.64 µM) | MIC (MRSA clinical isolates; MRSA, Table S4, MRSA strain 48, read-out: MIC): 0.5 µg/mL (≈ 1.64 µM) | MIC (MRSA clinical isolates; MRSA, Table S4, MRSA strain 49, read-out: MIC): 0.25 µg/mL (≈ 0.821 µM) | MIC (MRSA clinical isolates; MRSA, Table S4, MRSA strain 50, read-out: MIC): 0.5 µg/mL (≈ 1.64 µM) | MIC (MRSA clinical isolates; MRSA, Table S4, MRSA strain 51, read-out: MIC): 0.5 µg/mL (≈ 1.64 µM) | IC50 [2]: 19 µg/mL (≈ 62.4 µM) | IC50 [3]: 19 µg/mL (≈ 62.4 µM)
